# From patent US4350698A, “Antiallergic imidosulfamides” (SmithKline Corporation, priority 1981, dated 1982)
# Test system: slow reacting substance of anaphylaxis (SRS-A)
# Assay: Inhibition of SRS-A induced contraction of guinea pig ileum
# Format: cell-based
# Conditions: Cavia porcellus, 0.25 h; compound concentration 5×10^-6 M; partially purified SRS-A from guinea pig lung at 40 μg/ml; isolated guinea pig ileum; read-out: percent antagonism of SRS-A induced contraction
# Method: The SRS-A antagonist activity of the compounds of this invention is measured by the ability of the active medicament to inhibit SRS-A induced contraction of guinea pig ileum. In this test system, sections of ileum are resected from guinea pigs and placed in 5 ml. tissue baths containing a modified Tyrode's solution. One end of the tissue is fixed to a glass tissue holder, the other is connected to a force-displacement transducer and the tissue is placed under a tension of 500 mg. Isometric tissue contractions are recorded on a six channel polygraph. Baths are constantly aerated with 95% O2 -5% CO2. After a 20 minute stabilization period a concentration of the appropriate agonist which provides a contraction height of 60-80% of the maximum obtainable to that agonist (as determined from full sequential concentration-response curves in separate experiments) is added to the tissue bath and the response recorded. The procedure is repeated until reproducible responses are obtained. […] Percent inhibition produced by the test compound is calculated by subtracting the mean percentage change in control tissue from the mean percentage change in tissues exposed to the test compound. Additional compounds are then evaluated as long as the tissue remains reproducibly responsive to the agonist. […]
smiles,measurement,value
"O=C(NS(=O)(=O)N1CCc2ccc(Cl)c(Cl)c2C1)N1CCc2ccc(Cl)c(Cl)c2C1 [Compound 1, N-(7,8-Dichloro-1,2,3,4-tetrahydroisoquinolin-2yl)Carbonyl-7,8-dichloro-1,2,3,4-tetrahydroisoquinoline-2-sulfonamide]",inhibition at 5 µM,46%
